{
  "source": "paper PMC9822940",
  "about": "“Antiplasmodial activity, structure–activity relationship and studies on the action of novel benzimidazole derivatives” (Scientific Reports, 2023)",
  "key": {"P. falciparum HB3 strain": {"system": "P. falciparum HB3 strain", "assay": "Antiplasmodial activity against P. falciparum HB3 strain in culture", "type": "cell-based, Plasmodium falciparum", "details": "for IC50 / inhibition at 10 µM: Plasmodium falciparum; for IC50: HB3 strain (chloroquine-sensitive), read-out: IC50; for inhibition at 10 µM: HB3 strain, read-out: GI (growth inhibition percentage); for SI (selectivity index): Vero CC50 versus HB3 IC50", "description": "(§1) In vitro activity of BZ. All BZ derivatives were tested at 10 μM against the HB3 strain of Pf, and for those compounds with a percentage of growth inhibition (% GI) higher than 50%, the IC50 values were determined. In addition, their cytotoxicity on epithelial Vero cell cultures was evaluated to calculate their selectivity indexes (SI), Table 1. An index of 10 or above is expected for a lead compound.\n(§2) The chloroquine-sensitive […] and chloroquine-resistance 7G8 strain […] of P. falciparum were used throughout. Infected erythrocytes were kept in culture using the protocol established by Haynes et al.[44], basically utilizing human O^+ erythrocytes kept in an RPMI medium supplemented with glutamine and 10% human serum incubated in an atmosphere of 90% N2, 5% O2 and 5% CO2."}, "[1]": {"assay": "Cytotoxicity on epithelial Vero cell cultures", "type": "cell-based", "details": "African green monkey, epithelial Vero cells", "description": "as §1"}, "[2]": {"system": "7G8 P. falciparum parasites", "assay": "Antiplasmodial activity against chloroquine-resistant 7G8 P. falciparum", "type": "cell-based, Plasmodium falciparum", "details": "for IC50: Plasmodium falciparum, 7G8 strain (chloroquine-resistant), read-out: 7G8 Pf IC50; for SI (selectivity index): Vero CC50 versus 7G8 IC50", "text": "(§3) The mechanism used by Pf to prevent intoxication with free heme once hemoglobin is degraded is to form hemozoin crystals that capture heme. Mefloquine and other common antimalarials interfere with this pathway, resulting in the death of the parasite.\nas §2"}, "[3]": {"system": "plasma membrane of parasite culture / erythrocytes", "assay": "Propidium iodide incorporation assay (membrane integrity)", "type": "cell-based, Plasmodium falciparum", "details": "3 h incubation, fluorometry", "description": "The integrity of the plasma membrane under the action of certain antiplasmodial compounds was assessed through the use of two methodologies. First, the absorption of propidium iodide, to which intact membranes are impermeable, was measured. Second, the presence of heme in the culture media, which indicates a leakage of the contents of the erythrocyte or its complete lysis (hemolysis), was analyzed.\nFigure 3 Membrane integrity tests. BZ 1, 5, 16, 26 and 33 were tested in triplicates in two independent experiments. (a) Incorporation of propidium iodide (PI) was analyzed through fluorometry after 3 h incubation with the compounds. (b) Hemolysis was measured by light absorbance 24 h after exposure to the compounds. One-way ANOVA with Turkey´s comparison was used for analysis of significance. ****p < 0.001.\nManufacturer’s instructions (BD PharmingenTM) were followed. Briefly, 200 µL of parasite culture at 2% parasitemia or uninfected erythrocytes, at 2% hematocrit, were incubated with each compound for 3 h at 37 °C. Untreated samples were cultured in the same plate. After incubation, 2 µL of Propidium Iodide was added and incubated for 15 min at RT while protected from light. Fluorescence was read in a fluorometer at excitation and emission wavelengths of 485/20 and 645/40 nm, respectively."}, "[4]": {"system": "P. falciparum-infected cultures", "assay": "Intracellular reactive oxygen species (ROS) production in P. falciparum", "type": "cell-based, Plasmodium falciparum", "details": "1 µM; 0.5, 6 and 9 h", "description": "Also, the intracellular production of oxygen reactive species (ROS) was monitored for the same antiplasmodial compounds. The level of ROS production was compared between the samples and that of the untreated parasites. […] This would point to the conformation of such molecules targeting a specific molecule or process of the parasite.  Figure 4 Effect of selected benzimidazole derivatives on ROS production. Five potent compounds were incubated with P. falciparum-infected cultures and the production of reactive oxygen species was measured through fluorometry at 0.5, 6 and 9 h after their addition at 1 µM. As positive control, a sample containing hydrogen peroxide at 200 μM was added. Samples were measured in triplicates. One-way ANOVA with Turkey´s comparison was used to measure significance with respect to the untreated control at each different time point. n = 2. (a) BZ 1, (b) BZ 5, (c) BZ 16, (d) BZ 26 and (e) BZ 33. *p < 0.05, **p < 0.01, ***p < 0.005. Intracellular ROS formation was measured in a fluorimeter using the CM-H2DCFDA reactive dye from Molecular Probes® (Eugene OR, USA). Hydrogen peroxide was used as a positive control at a final concentration of 200 µM. The level of ROS present was inferred through the amount of oxidized DCF[45]."}, "[5]": {"system": "mitochondria of P. falciparum parasites", "assay": "Mitochondrial membrane potential measurement", "type": "cell-based, Plasmodium falciparum", "details": "1 µM", "description": "Changes in mitochondrial membrane potential, another common hallmark of programed cell death, were analyzed in the samples that had promising activities toward P. falciparum cultures. The results of adding 1 µM of each compound can be seen in Fig. 5. […] This could probably be explained by the presence of the unsubstituted picolinamide fragment, therefore more polar and less soluble in the membrane, making it harder or slower to permeate into the erythrocyte and then into the parasite, with respect to the other three.  Figure 5 Changes to mitochondrial membrane potential caused by antiplasmodial compounds. Fluorometry was used to measure the effects on the mitochondria of P. falciparum parasites caused by treatment with compounds that show activity against their growth in culture. A membrane disruptor (CCCP) was added as a positive control and untreated cultures were used as the negative one. All compounds were tested at 1 µM in triplicates, n = 3. (a) BZ 1, (b) BZ 5, (c) BZ 16, (d) BZ 26 and (e) BZ 33. *p < 0.05, **p < 0.01, ***p < 0.005. The membrane potential was measured in a flow cytometer after staining P. falciparum cultures with the DiOC6(3) dye at 10 nM (Thermo Fisher, Waltham, MA, USA). Samples were incubated for 45 min at 37 °C in the dark. Following incubation, cells were washed and resuspended using 200 µL of phosphate-buffered saline (PBS) and analyzed immediately after. The mitochondrial membrane disrupter, CCCP (50 µM), incubated for 1 h, was used as a positive control. The fluorescence intensity of stained cells was calculated using FCS Express 4 (De Novo Software, Glendale, CA, USA). As negative control, uninfected red blood cells were used and their signal was subtracted from that of the infected red blood cells."}, "[6]": {"system": "hemozoin biocrystallization in P. falciparum", "assay": "Hemozoin biocrystallization / beta-hemozoin formation", "type": "cell-based, Plasmodium falciparum", "details": "Pf cultures, 36 h", "text": "as §3"}},
  "data": [
    {"molecule": "Cc1ccc2[nH]c(NC(=O)c3ccccn3)nc2c1", "note": "[BZ 1, N-(5-methyl-1H-benzimidazol-2-yl)picolinamide]", "values": [
      {"measurement": "IC50", "setting": "P. falciparum HB3 strain", "value": 980, "unit": "nM"},
      {"measurement": "inhibition at 10 µM", "setting": "P. falciparum HB3 strain", "value": 93.5, "unit": "%"},
      {"measurement": "CC50", "setting": "[1]", "value": 14800, "unit": "nM"},
      {"measurement": "IC50", "setting": "[2]", "value": 950, "unit": "nM"},
      {"measurement": "SI (selectivity index)", "setting": "[2]", "value": 15.6},
      {"measurement": "Membrane integrity: incorporation of propidium iodide", "setting": "[3]", "value": "best in keeping the membrane well preserved"},
      {"measurement": "Intracellular ROS production versus untreated parasites", "setting": "[4]", "value": "early significant decrease in the natural level of ROS"},
      {"measurement": "Change in mitochondrial membrane potential versus untreated control", "setting": "[5]", "value": "do not show a difference with the untreated control up to t = 6 h"}
    ]},
    {"molecule": "Cc1ccc(C(=O)Nc2nc3cc(Cl)ccc3[nH]2)nc1", "note": "[BZ 16, N-(5-Chloro-1H-benzimidazol-2-yl)-5-methylpicolinamide]", "values": [
      {"measurement": "IC50", "setting": "P. falciparum HB3 strain", "value": 2400, "unit": "nM"},
      {"measurement": "inhibition at 10 µM", "setting": "P. falciparum HB3 strain", "value": 85.6, "unit": "%"},
      {"measurement": "SI (selectivity index)", "setting": "P. falciparum HB3 strain", "value": 3.0},
      {"measurement": "CC50", "setting": "[1]", "value": 7200, "unit": "nM"},
      {"measurement": "IC50", "setting": "[2]", "value": 2600, "unit": "nM"},
      {"measurement": "SI (selectivity index)", "setting": "[2]", "value": 2.7},
      {"measurement": "Membrane integrity: incorporation of propidium iodide", "setting": "[3]", "value": "some permeation in the membrane, although not significant"},
      {"measurement": "Intracellular ROS production versus untreated parasites", "setting": "[4]", "value": "no significant difference at any point"},
      {"measurement": "Interference with hemozoin biocrystallization", "setting": "[6]", "value": "small level of disruption"}
    ]},
    {"molecule": "Cc1cc2nc(NC(=O)c3ccccn3)[nH]c2cc1C", "note": "[BZ 33, N-(5,6-Dimethyl-1H-benzimidazol-2-yl)picolinamide]", "values": [
      {"measurement": "IC50", "setting": "P. falciparum HB3 strain", "value": 850, "unit": "nM"},
      {"measurement": "inhibition at 10 µM", "setting": "P. falciparum HB3 strain", "value": 100, "unit": "%"},
      {"measurement": "CC50", "setting": "[1]", "value": 13200, "unit": "nM"},
      {"measurement": "Membrane integrity: incorporation of propidium iodide", "setting": "[3]", "value": "best in keeping the membrane well preserved"},
      {"measurement": "Intracellular ROS production versus untreated parasites", "setting": "[4]", "value": "early significant decrease in the natural level of ROS"},
      {"measurement": "Change in mitochondrial membrane potential versus untreated control", "setting": "[5]", "value": "do not show a difference with the untreated control up to t = 6 h"}
    ]},
    {"molecule": "COc1ccc2[nH]c(NC(=O)c3ccc(C)cn3)nc2c1", "note": "[BZ 26, N-(5-Methoxy-1H-benzimidazol-2-yl)-5-methylpicolinamide]", "values": [
      {"measurement": "IC50", "setting": "P. falciparum HB3 strain", "value": 3300, "unit": "nM"},
      {"measurement": "inhibition at 10 µM", "setting": "P. falciparum HB3 strain", "value": 93.5, "unit": "%"},
      {"measurement": "SI (selectivity index)", "setting": "P. falciparum HB3 strain", "value": 3.4},
      {"measurement": "CC50", "setting": "[1]", "value": 11100, "unit": "nM"},
      {"measurement": "Membrane integrity: incorporation of propidium iodide", "setting": "[3]", "value": "some permeation in the membrane, although not significant"},
      {"measurement": "Intracellular ROS production versus untreated parasites", "setting": "[4]", "value": "no significant difference at any point"},
      {"measurement": "Change in mitochondrial membrane potential versus untreated control", "setting": "[5]", "value": "shows an effect from t = 6 h onward"}
    ]}
  ]
}
